Data on 11 compounds can be found in ChEMBL document CHEMBL1201862, “PubChem BioAssay data set” (2004).

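Briefly, cells in 96-well plates were exposed to five compound concentrations for 48 h, and endpoints were estimated by linear interpolation. At the GI50, growth is halved.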 Activity calls are given as the source filed them. Rule as the data show it: active = GI50 up to about 1.1 µM and inactive = higher. Some results are limits rather than exact numbers.

Test systems include KM-20L2; SNB-78; M19-MEL; HOP-18; XF498; DMS-273; DMS-114; RXF 631; DLD-1.
Test in all cases: DTP human tumour cell line panel, 48 h

Broadly, the GI50 is the concentration that inhibits growth by half. For the compound `Cc1nc2c(nc1C)C(=O)C1=C(C2=O)C2C=CC1CC2`, the GI50 with KM-20L2 is 23.3 µM (inactive); in the assay on SNB-78, 3.21 µM (inactive); with M19-MEL, 1.75 µM (inactive); in the assay on HOP-18 it was 16.4 µM (inactive); with XF498, 5.65 µM (inactive); in the assay with DMS-273 it was 14.6 µM (inactive). Moreover, the GI50 with DMS-114 was 1.75 µM (inactive); in the assay with RXF 631, 6.15 µM (inactive); in the assay with DLD-1, 7.53 µM (inactive).

For `Oc1cc(O)c2c(-c3c(O)c(-c4ccc(O)c(O)c4)[o+]c4cc(O)cc(O)c34)c(O)c(-c3ccc(O)c(O)c3)[o+]c2c1`, the GI50 was 46 µM (inactive) in the assay with KM-20L2; 51.5 µM (inactive) in the assay on SNB-78; 45.3 µM (inactive) with M19-MEL; 8 µM (inactive) in the assay on HOP-18; 33.7 µM (inactive) with XF498; 39.6 µM (inactive) in the assay with DMS-273. Moreover, the GI50 with DMS-114 is 32.7 µM (inactive); in the assay on RXF 631, 30.9 µM (inactive); in the assay with DLD-1 it was 87.7 µM (inactive).

Consider `COc1ccccc1C(O)(c1ccccc1)C(O)(c1ccccc1)c1ccccc1OC` (configuration not stated), for which the GI50 with KM-20L2, with SNB-78, in the assay with M19-MEL, with HOP-18, in the assay with XF498 and with DMS-273 was > 100 µM (inactive) throughout. The GI50 in the assay on DMS-114, in the assay with RXF 631 and with DLD-1 was > 100 µM (inactive) in each case.

As to `NC(=S)N/N=C(\CCC(=O)Nc1ccccc1[N+](=O)[O-])CC(=O)c1ccco1`, the GI50 in the assay on KM-20L2, in the assay with SNB-78, in the assay on M19-MEL, with HOP-18, in the assay on XF498 and with DMS-273 was > 100 µM (inactive) each time. Besides, the GI50 in the assay with DMS-114, in the assay with RXF 631 and with DLD-1 was > 100 µM (inactive) in each case.

With `Nc1ccc(C2=N/C(=C\c3cccc(N)c3)C(=O)O2)cc1`, the GI50 with KM-20L2, with SNB-78, in the assay on M19-MEL, in the assay on XF498, in the assay with DMS-114 and in the assay on RXF 631 was > 100 µM (inactive) each time. For the same compound, the GI50 in the assay with DLD-1 is > 100 µM (inactive).

Regarding `Cc1ccc(/N=N/c2c(C)nn(-c3ccccc3)c2C)c(Br)c1`, the GI50 was > 100 µM (inactive) with KM-20L2; > 100 µM (inactive) with SNB-78; > 100 µM (inactive) in the assay on M19-MEL; > 100 µM (inactive) in the assay on HOP-18; > 100 µM (inactive) in the assay with XF498; 51.3 µM (inactive) in the assay with DMS-273. For the same compound, the values for the GI50 in the assay on DMS-114, in the assay with RXF 631 and with DLD-1 were > 100 µM (inactive), > 100 µM (inactive) and 65.6 µM (inactive), respectively.

For the compound `CN(c1ccccc1)c1c(Cl)c(=O)oc2c1ccc1occc12`, the GI50 with KM-20L2, in the assay with SNB-78, with M19-MEL, in the assay with HOP-18, in the assay with DMS-273 and in the assay with DMS-114 was > 100 µM (inactive) throughout. For the same compound, the GI50 in the assay with RXF 631 and with DLD-1 was > 100 µM (inactive) in each case.

On to `CC1=C(C)C(=O)c2c(cc3ccccn23)C1=O`, for which the GI50 in the assay with SNB-78 was 23.1 µM (inactive); in the assay with M19-MEL it was 1.87 µM (inactive); with HOP-18, 33.9 µM (inactive); in the assay with DMS-273 it was 16.6 µM (inactive); in the assay on DMS-114 it was 12.9 µM (inactive); in the assay with RXF 631, 3.12 µM (inactive). Besides, the GI50 in the assay on DLD-1 was > 10 µM (inactive).

Turning to `CCCCCCCCCCCCCCCCc1c(O)nc(NC#N)nc1C(=O)OC`, the GI50 in the assay on KM-20L2, in the assay on SNB-78, with M19-MEL, with HOP-18, with XF498 and in the assay on DMS-114 was > 25 µM (inactive) throughout. For the same compound, the GI50 in the assay with RXF 631 and in the assay with DLD-1 was > 25 µM (inactive) each time.

Turning to `CN(C)CCNC(=O)c1cccc2cc3c(Cl)cccc3nc12`, the GI50 in the assay with KM-20L2 is 1.54 µM (inactive); with SNB-78 it was 2.11 µM (inactive); in the assay with M19-MEL, 1.33 µM (inactive); in the assay on HOP-18, 4.51 µM (inactive); in the assay on XF498, 0.394 µM (active); in the assay on DMS-273, 0.562 µM (active). Moreover, the GI50 with DMS-114 was 1.35 µM (inactive); in the assay on RXF 631, 2.55 µM (inactive); in the assay on DLD-1 it was 1.17 µM (inactive).

Regarding `COC(=O)C(=O)C(C#N)c1nc2ccccc2s1` (configuration not stated), the GI50 in the assay on KM-20L2, with SNB-78, with M19-MEL, in the assay on XF498, with DMS-273 and in the assay on DMS-114 was > 100 µM (inactive) throughout. Further, the GI50 in the assay on RXF 631 is > 100 µM (inactive); with DLD-1 it was 56.4 µM (inactive).
